{"source": "patent US20090191144A1", "about": "“USE OF LIPID COMPONENTS AGAINST POLLEN ALLERGIES” (BEIERSDORF AG, priority 2008, published 2009)"}
{"test": "Viscosity of preferred lipids", "format": "physicochemical", "units": {"Viskosity (in mPas) (s^−1 = 500)": "mPas"}}
{"compound": "CCCCCCCCCCCCCCCCCC(=O)OCCCC", "note": "[Crodamol BS, Butyl Stearate]", "Viskosity (in mPas) (s^−1 = 500)": 100}
{"compound": "CC(C)CCCCCCCCCCCCCCCOC(=O)CC(O)C(=O)OCCCCCCCCCCCCCCCC(C)C", "note": "(centres unmarked) [DUB MDIS, Diisostearyl Malate]", "Viskosity (in mPas) (s^−1 = 500)": 113}
{"compound": "CCCCCCCCCCC(CO)CCCCCCCC", "note": "(centres unmarked) [Eutanol G, Octyldodecanol]", "Viskosity (in mPas) (s^−1 = 500)": 47.7}
{"compound": "CCCCOCCOP(=O)(OCCOCCCC)OCCOCCCC", "note": "[Hostaphat B 310, Tributoxyethylphosphate]", "Viskosity (in mPas) (s^−1 = 500)": 122}
{"compound": "CC(C)CCCC(C)CCCC(C)CCCCC(C)CCCC(C)CCCC(C)C", "note": "(centres unmarked) [Motif, Squalan]", "Viskosity (in mPas) (s^−1 = 500)": 220}
{"compound": "CCCCC(CC)C(=O)OCC(COC(=O)C(CC)CCCC)(COC(=O)C(CC)CCCC)COC(=O)C(CC)CCCC", "note": "(centres unmarked) [Trivent PE 48, Pentaerythrityl Tetraethylhexanoate]", "Viskosity (in mPas) (s^−1 = 500)": 116}
{"compound": "Hydroxystearate Glycerol Triacetyle", "Viskosity (in mPas) (s^−1 = 500)": 65}
{"compound": "PEG-2 Diethylhexanoate [Dermol 488]", "Viskosity (in mPas) (s^−1 = 500)": 110}
{"compound": "Pentaerythrityl Tetraisostearate [Crodamol PTIS 3797]", "Viskosity (in mPas) (s^−1 = 500)": 390}
{"compound": "Pentaerythrityl Tetraisostearate [DUB PTIS]", "Viskosity (in mPas) (s^−1 = 500)": 57}
{"compound": "Tridecyl Trimellitate [DUB TMTD]", "Viskosity (in mPas) (s^−1 = 500)": 116}
{"compound": "Triisodecyl Trimelliate [DUB TMI]", "Viskosity (in mPas) (s^−1 = 500)": 111}
{"compound": "Triisononanoin [Isodragol]", "Viskosity (in mPas) (s^−1 = 500)": 67}
{"compound": "Triisostearin [Prisorine 2041 GTIS]", "Viskosity (in mPas) (s^−1 = 500)": 99}
